Assay results taken from patent US20230072421A1, “TARGETED RADIOPHARMACEUTICALS FOR THE DIAGNOSIS AND TREATMENT OF PROSTATE CANCER” (Bayer AS, priority 2019, published 2023).

Legend:
[1] = test system: VCaP cells; assay: Cell proliferation assay (CellTiter-Glo, 5-day exposure), VCaP; format: cell-based; settings: 4000 cells/well, Th-227 labelled at 375 kBq/nmol, mean of 1 to 6 experiments
Outline: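 CellTiter-Glo luminescence, day 0 (sister plates) vs day 5 of exposure to Th-227-labelled PSMA ligands. Seeding: VCaP 4000 cells/well; 22Rv1, C4-2, LNCaP 1000 cells/well; overnight 37 °C, 5% CO2 before treatment.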

[2] = test system: LNCaP cells; assay: Cell proliferation assay (CellTiter-Glo, 5-day exposure), LNCaP; format: cell-based, human; settings: LNCaP, 1000 cells/well; Th-227 labelled at 375 kBq/nmol; 5-day exposure; mean of 1 to 6 experiments
Outline: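 Th-227-labelled PSMA ligands (375 kBq/nmol) serially diluted in triplicate on 22Rv1, C4-2, LNCaP (1000 cells/well) and VCaP (4000 cells/well) seeded overnight at 37 °C. Viability by CellTiter-Glo luminescence at treatment start (sister plates) and after 5-day exposure; dose-response curves fitted.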

[3] = Biodistribution study in LNCaP tumor-bearing mice (Th227 counted in organs); format: in vivo, SCID mice; settings: 1500 kBq/kg
Outline: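 SCID mice bearing testosterone pellets and subcutaneous LNCaP flank tumors (~50 mm^2) received a single intravenous dose of the radioactive compound. At set time points, n=3 animals were sacrificed, and organs were removed, weighed and counted for Th227 on a Germanium detector.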

O=C([O-])CN1CCN(CC(=O)[O-])CCN(CC(=O)NCC2CCC(C(=O)NC(Cc3ccc4ccccc4c3)C(=O)NCCCCC(NC(=O)NC(CCC(=O)O)C(=O)O)C(=O)O)CC2)CCN(CC(=O)[O-])CC1.[227Th+4] [Example 1-B-D-227Th, [^227Th]Thorium-(3S,10S,14R)-3-[(naphthalen-2-yl)methyl]-1,4,12-trioxo-1-{(1r,4S)-4-[(2-{4,7,10-tris[(carboxy-kappaO)methyl]-1,4,7,10-tetraazacyclododecan-1-yl-kappa^4N^1,N^4,N^7,N^10}acetamido)methyl]cyclohexyl}-2,5,11,13-tetraazahexadecane-10,14,16-tricarboxylate]
Proliferation assay on cancer cell lines by TTCs Default Pivot #3 IC50 [kBq/mL] VCap 4000cells 375kBq/nmol (mean) [1]: 4.52 kBq/mL | Proliferation assay on cancer cell lines by TTCs Default Pivot #3 IC50 [kBq/mL] LnCap 1000cells 375kBq/nmol (mean) [2]: 0.49 kBq/mL | Th-227 in Blood ([3]; 0.25 h): 4.97% ID Th-227/g organ | Th-227 in Liver ([3]; 0.25 h): 1.25% ID Th-227/g organ | Th-227 in Spleen ([3]; 0.25 h): 1.91% ID Th-227/g organ | Th-227 in Tumor ([3]; 0.25 h): 2.08% ID Th-227/g organ | Th-227 in bone ([3]; 0.25 h): 1.70% ID Th-227/g organ | Th-227 in brain ([3]; 0.25 h): 0.18% ID Th-227/g organ | Th-227 in kidney ([3]; 0.25 h): 10.76% ID Th-227/g organ | Th-227 in large intestine ([3]; 0.25 h): 0.75% ID Th-227/g organ | Th-227 in lung ([3]; 0.25 h): 3.67% ID Th-227/g organ | Th-227 in muscle ([3]; 0.25 h): 0.88% ID Th-227/g organ | Th-227 in prostate ([3]; 0.25 h): 6.26% ID Th-227/g organ | Th-227 in salivary glands ([3]; 0.25 h): 1.61% ID Th-227/g organ | Th-227 in small intestine ([3]; 0.25 h): 1.21% ID Th-227/g organ | Th-227 in Blood ([3]; 1 hr): 1.04% ID Th-227/g organ | Th-227 in Liver ([3]; 1 hr): 0.59% ID Th-227/g organ | Th-227 in Spleen ([3]; 1 hr): 1.09% ID Th-227/g organ | Th-227 in Tumor ([3]; 1 hr): 1.16% ID Th-227/g organ | Th-227 in bone ([3]; 1 hr): 0.99% ID Th-227/g organ | Th-227 in kidney ([3]; 1 hr): 4.11% ID Th-227/g organ | Th-227 in large intestine ([3]; 1 hr): 0.18% ID Th-227/g organ | Th-227 in lung ([3]; 1 hr): 0.98% ID Th-227/g organ | Th-227 in muscle ([3]; 1 hr): 0.24% ID Th-227/g organ | Th-227 in prostate ([3]; 1 hr): 2.87% ID Th-227/g organ | Th-227 in salivary glands ([3]; 1 hr): 0.52% ID Th-227/g organ | Th-227 in small intestine ([3]; 1 hr): 0.26% ID Th-227/g organ | Th-227 in Blood ([3]; 4 hr): 0.20% ID Th-227/g organ | Th-227 in Liver ([3]; 4 hr): 0.43% ID Th-227/g organ | Th-227 in Spleen ([3]; 4 hr): 0.34% ID Th-227/g organ | Th-227 in Tumor ([3]; 4 hr): 1.59% ID Th-227/g organ | Th-227 in bone ([3]; 4 hr): 1.68% ID Th-227/g organ | Th-227 in brain ([3]; 4 hr): 0.01% ID Th-227/g organ | Th-227 in kidney ([3]; 4 hr): 2.97% ID Th-227/g organ | Th-227 in large intestine ([3]; 4 hr): 0.17% ID Th-227/g organ | Th-227 in lung ([3]; 4 hr): 0.43% ID Th-227/g organ | Th-227 in muscle ([3]; 4 hr): 0.05% ID Th-227/g organ | Th-227 in salivary glands ([3]; 4 hr): 0.30% ID Th-227/g organ | Th-227 in small intestine ([3]; 4 hr): 0.17% ID Th-227/g organ | Th-227 in Liver ([3]; 24 h): 0.31% ID Th-227/g organ | Th-227 in Spleen ([3]; 24 h): 0.23% ID Th-227/g organ | Th-227 in Tumor ([3]; 24 h): 0.95% ID Th-227/g organ | Th-227 in bone ([3]; 24 h): 1.29% ID Th-227/g organ | Th-227 in kidney ([3]; 24 h): 0.83% ID Th-227/g organ | Th-227 in large intestine ([3]; 24 h): 0.07% ID Th-227/g organ | Th-227 in lung ([3]; 24 h): 0.16% ID Th-227/g organ | Th-227 in muscle ([3]; 24 h): 0.00% ID Th-227/g organ | Th-227 in salivary glands ([3]; 24 h): 0.09% ID Th-227/g organ | Th-227 in small intestine ([3]; 24 h): 0.08% ID Th-227/g organ | Th-227 in Liver ([3]; 96 h): 0.31% ID Th-227/g organ | Th-227 in Spleen ([3]; 96 h): 0.29% ID Th-227/g organ | Th-227 in Tumor ([3]; 96 h): 1.05% ID Th-227/g organ | Th-227 in bone ([3]; 96 h): 2.88% ID Th-227/g organ | Th-227 in kidney ([3]; 96 h): 0.37% ID Th-227/g organ | Th-227 in lung ([3]; 96 h): 0.14% ID Th-227/g organ | Th-227 in muscle ([3]; 96 h): 0.00% ID Th-227/g organ | Th-227 in salivary glands ([3]; 96 h): 0.13% ID Th-227/g organ | Th-227 in small intestine ([3]; 96 h): 0.06% ID Th-227/g organ
